Series [1] relates to VCaP. The experiment in a line: Antitumor activity against human VCaP cells xenografted in CB17-SCID mouse assessed as tumor growth inhibition at 40 mg/kg, po administered for 21 days. To be noted: 504 h, read-out: TGI.
Series [2] is described as follows: Metabolic stability in rat liver microsome assessed as parent compound remaining measured at 120 mins in presence of NADPH by LC-MS/MS analysis. Format: ADME. To be noted: liver microsomes, read-out: Stability. On the technique in general: Liver microsomes are vesicles of endoplasmic reticulum, rich in cytochrome P450 enzymes.
The test system of series [3] is VCaP. Briefly: Growth inhibition in human VCaP cells.
The nature of series [4]: Metabolic stability in non human primate hepatocyte assessed as half life measured upto 120 mins by LC-MS/MS analysis. Format: ADME, cell-based. Conditions: primates, hepatocytes.
Series [5] is described as follows: Metabolic stability in non human primate plasma assessed as parent compound remaining measured after 120 mins by LC-MS/MS analysis. Type of series: ADME, cell-free. Conditions: primates, read-out: Stability.
Series [6] in a line: Metabolic stability in human liver microsome assessed as half life measured upto 45 mins in presence of NADPH by LC-MS/MS analysis. Type of series: ADME. Conditions: liver microsomes.
The target in series [7] is Protein cereblon/Androgen receptor (Homo sapiens, UniProt P10275+Q96SW2, L702H/T878A). Conditions: mda-pca-2b.
Sequence of Protein cereblon/Androgen receptor (Homo sapiens, UniProt P10275+Q96SW2, L702H/T878A) (P10275 whole entry L702H/T878A, stated change not applied): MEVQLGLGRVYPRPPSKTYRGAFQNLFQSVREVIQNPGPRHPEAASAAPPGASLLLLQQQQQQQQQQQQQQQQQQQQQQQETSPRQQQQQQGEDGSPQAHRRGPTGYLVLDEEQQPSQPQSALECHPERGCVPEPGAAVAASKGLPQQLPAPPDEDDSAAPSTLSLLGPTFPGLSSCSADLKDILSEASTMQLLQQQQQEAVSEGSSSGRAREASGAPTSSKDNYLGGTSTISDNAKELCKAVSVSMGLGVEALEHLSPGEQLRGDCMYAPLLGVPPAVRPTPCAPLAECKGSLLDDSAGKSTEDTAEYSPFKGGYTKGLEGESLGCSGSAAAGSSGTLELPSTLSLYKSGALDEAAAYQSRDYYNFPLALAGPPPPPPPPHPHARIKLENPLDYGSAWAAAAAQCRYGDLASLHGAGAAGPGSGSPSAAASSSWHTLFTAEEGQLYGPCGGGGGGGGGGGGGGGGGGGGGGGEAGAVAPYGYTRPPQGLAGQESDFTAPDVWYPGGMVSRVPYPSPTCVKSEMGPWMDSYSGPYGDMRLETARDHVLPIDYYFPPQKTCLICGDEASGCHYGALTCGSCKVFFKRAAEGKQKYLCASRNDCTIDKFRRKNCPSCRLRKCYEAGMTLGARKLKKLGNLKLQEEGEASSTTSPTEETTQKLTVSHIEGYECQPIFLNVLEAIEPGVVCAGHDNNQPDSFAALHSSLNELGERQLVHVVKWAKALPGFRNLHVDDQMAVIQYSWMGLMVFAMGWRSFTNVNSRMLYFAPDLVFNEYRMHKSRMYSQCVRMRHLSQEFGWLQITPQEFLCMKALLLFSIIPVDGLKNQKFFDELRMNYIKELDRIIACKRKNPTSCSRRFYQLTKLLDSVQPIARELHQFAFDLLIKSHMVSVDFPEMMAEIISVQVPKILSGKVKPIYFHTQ
Sequence of Protein cereblon/Androgen receptor (Homo sapiens, UniProt P10275+Q96SW2, L702H/T878A) (Q96SW2 whole entry, stated change not applied): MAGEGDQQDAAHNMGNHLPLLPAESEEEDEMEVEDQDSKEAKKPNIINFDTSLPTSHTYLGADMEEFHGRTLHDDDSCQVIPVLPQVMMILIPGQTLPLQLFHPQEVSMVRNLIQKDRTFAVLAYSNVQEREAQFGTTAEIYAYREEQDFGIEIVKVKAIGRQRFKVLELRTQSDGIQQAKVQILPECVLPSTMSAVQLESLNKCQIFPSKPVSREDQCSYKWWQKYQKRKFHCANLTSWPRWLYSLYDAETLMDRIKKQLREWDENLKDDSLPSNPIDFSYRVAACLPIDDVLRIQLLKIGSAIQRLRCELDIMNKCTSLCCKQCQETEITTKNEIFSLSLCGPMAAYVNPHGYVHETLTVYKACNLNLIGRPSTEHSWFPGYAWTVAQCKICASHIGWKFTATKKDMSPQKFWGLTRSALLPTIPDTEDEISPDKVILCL
Series [8] in a line: Metabolic stability in dog liver microsome assessed as parent compound remaining measured at 120 mins in presence of NADPH by LC-MS/MS analysis. Type of series: ADME, Canis lupus familiaris. Conditions: liver microsomes, read-out: Stability.
The nature of series [9]: Tmax in Sprague-Dawley rat at 5 mg/kg, po measured upto 24 hrs by LC-MS/MS analysis. Format: ADME, organism-based. Conditions: in vivo.
A short description of series [10]: AUC (0 to t) in ICR mouse at 5 mg/kg, po measured upto 24 hrs by LC-MS/MS analysis. To be noted: in vivo. Also noted: dose 5 mg/kg, time < 24 hrs, route po. Format: ADME, organism-based.
The nature of series [11]: Metabolic stability in non human primate liver microsome assessed as parent compound remaining measured at 120 mins in presence of NADPH by LC-MS/MS analysis. Format: ADME. To be noted: primates, liver microsomes, read-out: Stability.
Series [12] can be described thus: Metabolic stability in mouse plasma assessed as parent compound remaining measured after 120 mins by LC-MS/MS analysis. Format: ADME, cell-free. To be noted: read-out: Stability.
Series [13] is described as follows: Volume of distribution at steady state in ICR mouse at 2 mg/kg, iv measured upto 24 hrs by LC-MS/MS analysis. Format: ADME, organism-based. To be noted: in vivo, read-out: Vdss.
Series [14] can be described thus: Half life in ICR mouse at 5 mg/kg, po measured upto 24 hrs by LC-MS/MS analysis. Type of series: ADME, organism-based. To be noted: in vivo.
Series [15] deals with Protein cereblon/Androgen receptor (Homo sapiens, UniProt P10275+Q96SW2). The experiment in a line: PROTAC activity at AR/CRBN in AR-positive human VCaP cells assessed as induction of androgen receptor degradation measured at 24 hrs. Type of series: cell-based. Conditions: read-out: DC50.
Sequence of Protein cereblon/Androgen receptor (Homo sapiens, UniProt P10275+Q96SW2) (P10275 whole entry): as the sequence (P10275 whole entry L702H/T878A, stated change not applied) above, with H702L, A878T counted along it
Sequence of Protein cereblon/Androgen receptor (Homo sapiens, UniProt P10275+Q96SW2) (Q96SW2 whole entry): as the sequence (Q96SW2 whole entry, stated change not applied) above
Series [16] can be described thus: Metabolic stability in human hepatocyte assessed as half life measured upto 120 mins by LC-MS/MS analysis. Type of series: ADME, cell-based. Conditions: hepatocytes.
Series [17] is described as follows: Metabolic stability in rat plasma assessed as half life measured after 2 hrs by LC-MS/MS analysis. Format: ADME, cell-free.
Series [18] in a line: Tmax in ICR mouse at 5 mg/kg, po measured upto 24 hrs by LC-MS/MS analysis. Conditions: in vivo. Format: ADME, organism-based.
Series [19] deals with VCaP. The experiment in a line: Antitumor activity against human VCaP cells xenografted in CB17-SCID mouse assessed as tumor growth inhibition at 20 mg/kg, po administered for 21 days. To be noted: 504 h, read-out: TGI. Background: A xenograft is tissue or cells of one species grown in another, often human tumour cells in immunodeficient mice.
Series [20] is described as follows: Volume of distribution at steady state in Beagle dog at 1 mg/kg, iv measured upto 24 hrs by LC-MS/MS analysis. Type of series: ADME, organism-based, Canis lupus familiaris. Conditions: in vivo, read-out: Vdss.
A short description of series [21]: Clearance in ICR mouse at 2 mg/kg, iv measured upto 24 hrs by LC-MS/MS analysis. Type of series: ADME, organism-based. Conditions: in vivo.
Series [22] can be described thus: Cmax in non human primate at 2 mg/kg, po measured upto 24 hrs by LC-MS/MS analysis. Type of series: ADME, organism-based. Also noted: dose 2 mg/kg, time < 24 hrs, route po. To be noted: primates, in vivo.

As usually defined, the pIC50 is the negative decadic logarithm of the IC50, by convention in mol/L. Read a high pIC50 as a low IC50. What is called half-life is how long it takes for the measured level to halve. What is called Tmax is the time at which the peak concentration occurs. A word on the AUC(0-t): it is the area under the concentration-time curve up to a stated or last time point. Low values mean low exposure, high ones high exposure. For orientation: clearance means the volume of plasma or blood freed of the substance per unit of time. Usually Cmax stands for the peak of the concentration-time curve.

pIC50: −log10 of the molar value.

Turning to `C[C@H]1CC2(CCN(c3ccc(C(=O)N4CCC(CN5Cc6cc7c(cc6C5)C(=O)N(C5CCC(=O)NC5=O)C7=O)CC4)cc3)CC2)CN1c1ccc(C#N)c(Cl)c1` (some centres not stated), the inhibition in vivo at 40 mg/kg in series [1] came to 85%. Further, the remaining at 2 h was 87% in series [2]; 92% in [5]; 87% in series [8]; 82% in series [11]; 62% in [12]. In [3], this compound gave a negative-log IC50 (pIC50) of 7.94. Also, the half-life is above 2 h in series [4], 4.4 h in series [14], above 2 h in [16] and above 2 h in series [17]. Further, the half-life at […] in series [6] was above 1 h. The values for the DC50 in series [7] and in series [15] were 8 nM and 0.1 nM, respectively. The values for the time of peak concentration (Tmax) in series [9] and in [18] were 4 h and 2 h, respectively. The AUC(0-t) at 24 h in series [10] is 85200 ng·h/mL. Moreover, the figures for the Vd in series [13] and in series [20] were 0.23 L/kg and 1.74 L/kg, respectively. Besides, the inhibition in vivo at 20 mg/kg in [19] came out at 68%. The compound also gave a clearance in [21] of 0.667 mL/min/kg. The compound further registered a peak concentration (Cmax) in series [22] of 1520 ng/mL.

The values above are taken from ChEMBL document CHEMBL5365467 (J Med Chem, 2023).
